According to article PMC10483468, “Biomimetic Dispersive Solid-Phase Microextraction: A Novel Concept for High-Throughput Estimation of Human Oral Absorption of Organic Compounds” (Analytical Chemistry, 2023):
“And” between values parts separate entries of the source, which are not always exact repeats. Equal entries are not always repeated.

Experiments:
[1] = Dispersive extraction with the free polymer (GMA monolith); type: physicochemical; details: free polymer without PC
human jejunum = details: value = Peff x 10^4; cited from earlier work
[2] = Dispersive biomimetic solid-phase extraction (d-BMSPE) with PC-modified POP material; type: in vitro ADME; details: 30 min; for d-BMSPE extraction efficiency: 3.5 mg/L CEC in 5 mL PBS pH 7.4, ca. 40 mg PC-modified POP, 15 rpm, 37 °C; for RMBE·10^4 (relative mol bioextraction): value = RMBE x 10^4, mol analyte extracted per mol PC attached, PBS pH 7.4, 37 °C
Procedure: The experimental procedure starts by spiking 5 mL of PBS at pH 7.4 mimicking pH conditions from the small intestine with 3.5 mg L^–1 of the selected CEC and mixing with ca. 40 mg of PC-modified POP material. The material is dispersed gently in the solution at 15 rpm for 30 min at physiological temperature (37 °C) using a lab rotator, followed by separation of the biomimetic material by centrifugation. After separation, the supernatant of the biomimetic extractions is analyzed by HPLC. The bioextractable fraction of every CEC is determined by subtraction from the original spike concentration.
Following the fabrication of the biomimetic polymer, several considerations should be set before carrying out the d-BMSPE. First, the amount of PC on the modified polymer (GMA@HMD@GA@HMD@PCs) to simulate the absorption area of the jejunum needs to be evaluated.
The estimated liquid volume under fasted conditions of the jejunum is ca. 20 mL.[45] However, in this work, solutions of 5 mL were selected in order to reduce the amount of biomimetic material used in every extraction protocol. Therefore, only 1/4 of the total PC amount calculated above (ca. 9 μmol) should be used to maintain the PC to jejunum liquid ratio. A crucial experimental parameter in our work is the amount of PC-laden biopolymer necessary to simulate the absorption area of the jejunum.
With respect to the remainder of experimental parameters, a gentle agitation was performed at 15 rpm to just enable a good dispersion of the polymer in the test solution. The extraction time was set to 30 min according to the average intestinal transit time and the length of the jejunum over the total length of the small intestine.[46] Finally, the extraction temperature was set to 37 °C to simulate physiological conditions.
In addition, a new bioparameter, “RMBE” that stands for "Relative Mol BioExtraction", is herein proposed for the first time. RMBE is defined as the extraction efficiency expressed as mol of analyte extracted per mol of PC attached to the biomimetic material under physiologically simulated conditions (e.g., extraction using PBS buffer at 37 °C, or gastrointestinal fluid surrogates, or actual human fluids, among others).

[3] = Dispersive extraction with the polymer prior to PC attachment (GMA@HMD@GA@HMD); type: physicochemical

Compound | extraction efficiency, GMA monolith [1] [%] | experimental Peff·10^4 (human jejunum) | d-BMSPE extraction efficiency [2] | RMBE·10^4 (relative mol bioextraction) [2] [mol CEC/mol PC] | extraction efficiency, GMA@HMD@GA@HMD [3] [%]
O=C(O)Cc1ccccc1Nc1c(Cl)cccc1Cl [DCF, diclofenac] | ~100 | 1.6[40] cm/ s | 10.6 ± 1.1% | 22.6 ± 0.8 | ~40
Cc1cnc(C(=O)NCCc2ccc(S(=O)(=O)NC(=O)NC3CCCCC3)cc2)cn1 [GLP, glipizide] |  | 0.9[38] cm/ s |  |  | 
CN(C)C(=N)N=C(N)N [MET, metformin] |  | 0.1[52] cm/ s | 0.9% and 0.9 ± 0.1% | 3.6 ± 0.7 | 
CC(=O)Nc1ccc(O)cc1 [PCT, paracetamol] |  | 4.0[6] cm/ s | 15.3 ± 0.8% | 60.3 ± 1.5 | 
NS(=O)(=O)c1cc(C(=O)O)c(NCc2ccco2)cc1Cl [FUR, furosemide] |  | 0.6[49] cm/ s | 26.3 ± 1.1% | 49.8 ± 0.9 | 
CN/C(=N/CCSCc1nc[nH]c1C)NC#N [CTM, cimetidine] |  | 0.8[51] cm/ s | 4.6 ± 2.1% | 9.6 ± 1.7 | 
CC1=C(C(=O)O)N2C(=O)[C@@H](NC(=O)[C@H](N)c3ccccc3)[C@H]2SC1 [CEX, cephalexin] |  | 1.6[6] cm/ s |  |  | 
